Measurements taken from US20250057819A1, “DRUG COMBINATIONS FOR INHIBITING CORONAVIRUS REPLICATION” (priority 2021, published 2025).
Counter-ions that a name gives are not always drawn. Like-named read-outs stand apart in the source and are kept apart here.

Key:
[1] = system: SARS-CoV-2; conditions: reports from in vitro studies (ref. 16); cited from earlier work
[2] = system: Covid-19; conditions: adults hospitalized with Covid-19 (ref. 17); cited from earlier work
[3] = system: SARS-CoV-2; experiment: microbe, parasite or virus in culture; format: cell-based; conditions: read-out: SARS-CoV-2 EC50
[4] = system: Huh7.5 cells; experiment: Cell viability assay (MTT) in Huh7.5 cells; format: cell-based, human; conditions: Huh7.5 (B), read-out: SARS-CoV-2 CC50
Procedure: (§1) Cell viability was monitored by a mitochondrial activity test using methyl-thiazolyl-tetrazolium (MTT, Sigma). After 48 hours of drug treatment, cells were treated with 1 mg/ml of MTT during 3 hours at 37° C. The supernatants were removed and the MTT crystals were dissolved using DMSO and a shaker. The absorbance was read with a Tecan Spark at 570 nm with reference at 650 nm.
(§2) Only the most promising molecules or those studied in synergy were tested in Calu3 cells.

[5] = system: Calu3 cells; experiment: Cell viability assay (MTT) in Calu3 cells; format: cell-based, Human; conditions: Calu3 (C), read-out: SARS-CoV-2 CC50
Procedure: as §1, §2

[6] = system: SARS-CoV-2; experiment: Drug tests in SARS-CoV-2 model, Calu3 cells, viral titration by plaque assay in Vero E6; conditions: read-out: SARS-CoV-2 EC50; Calu3 (C), MOI 0.05, 48 h treatment
[7] = system: rHCoVs-OC43; experiment: organism not typed; format: cell-based; conditions: for IC50: drug 2 alone (fast synergy screening table), read-out: IC50; for EC50: drug alone, HRT-18 cells, MOI 0.025, 48 h treatment, decrease of Rluc, read-out: EC50
[8] = system: HRT-18 cells; experiment: Cell viability assay (MTT) in HRT-18 cells
[9] = Cell viability assay (MTT) in Huh7.5 cells; format: cell-based, human; conditions: human, Huh7.5 cells, Huh7.5 (B), read-out: SARS-CoV-2 CC50
Procedure: as §1, §2

[10] = Cell viability assay (MTT) in Calu3 cells; format: cell-based, Human; conditions: human, Calu3 cells, Calu3 (C), read-out: SARS-CoV-2 CC50
Procedure: as §1, §2

[11] = Cell viability assay (MTT) in HRT-18 cells; conditions: human, CC50 (μM)
[12] = drug 2 alone (fast synergy screening table)
[13] = drug alone, HRT-18 cells, 48 h treatment, MTT
[14] = Severe acute respiratory syndrome coronavirus 2, Huh7.5, 48 h

SMILES	EC50 [3]	CC50 [4]	EC50 [6]	IC50 [7]	EC50 [7]	EC50 [3, 14]	CC50 at 48 h [9]	CC50 at 48 h [10]	CC50 at 48 h [11, 13]	further results
Cc1cccc(C)c1OCC(=O)N[C@@H](Cc1ccccc1)[C@@H](O)C[C@H](Cc1ccccc1)NC(=O)[C@H](C(C)C)N1CCCNC1=O [Lopinavir]										EC50 [1]: 26000 nM; clinical benefit [2]: no benefit was observed
CC(C)C(=O)OC[C@H]1O[C@@H](n2cc/c(=N\O)[nH]c2=O)[C@H](O)[C@@H]1O [Molnupinavir]	84 nM	> 10000 nM	35 nM							CC50 [5]: > 10000 nM
COc1c(C)c2c(c(O)c1C/C=C(\C)CCC(=O)OCCN1CCOCC1)C(=O)OC2 [Mycophenolate mofetil]	1180 nM	9100 nM		180 nM	180 nM					CC50 [8, 12]: > 10000 nM; CC50 [8, 13]: > 10000 nM
CCC(CC)COC(=O)[C@H](C)N[P@](=O)(OC[C@H]1O[C@@](C#N)(c2ccc3c(N)ncnn23)[C@H](O)[C@@H]1O)Oc1ccccc1 [Remdesivir]			4 nM	34 nM	34 nM	≤ 1 nM	> 10000 nM	> 10000 nM	2.5 µM	IC50 ([7]; 48 h): 34 nM; CC50 at 48 h [11, 12]: 2.5 µM
CCN(CC)CCOc1ccc2c(c1)C(=O)c1cc(OCCN(CC)CC)ccc1-2 [Tilorone dihydrochloride]			70 nM		14 nM	500 nM	> 10000 nM	> 10000 nM	> 10 µM	
